The source of these data is PubChem BioAssay AID1259407 (Chemical Carcinogenesis Research Information System (CCRIS), 2018).

The source made the active and inactive calls. The rule behind the calls is not given here.

The series concerns CCRIS mutagenicity, Ames/micronucleus/aberration tests. Briefly: CCRIS mutagenicity studies.
The mark [1] stands for this setting: Test System: AMES SALMONELLA TYPHIMURIUM, Strain/Indicator: TA97, Metabolic Activation: NONE, Method: STANDARD PLATE.
[2] abbreviates: Test System: AMES SALMONELLA TYPHIMURIUM, Strain/Indicator: TA98, Metabolic Activation: NONE, Method: STANDARD PLATE.
[3] abbreviates: Test System: AMES SALMONELLA TYPHIMURIUM, Strain/Indicator: TA100, Metabolic Activation: NONE, Method: STANDARD PLATE.
Setting [4] is: Test System: AMES SALMONELLA TYPHIMURIUM, Strain/Indicator: TA1535, Metabolic Activation: NONE, Method: STANDARD PLATE.

Regarding `CN(C)N=Nc1ccc([N+](=O)[O-])cc1`, the mutagenic call reads like this: (Test System: AMES SALMONELLA TYPHIMURIUM, Strain/Indicator: TA92, Metabolic Activation: MOUSE, LIVER, S-9, POLYCHLORINATED BIPHENYLS, Method: PREINCUBATION) “active; positive”; (Test System: AMES SALMONELLA TYPHIMURIUM, Strain/Indicator: TA92, Metabolic Activation: MOUSE, LIVER, S-9, POLYCHLORINATED BIPHENYLS, Method: STANDARD PLATE) “active; positive”; (Test System: AMES SALMONELLA TYPHIMURIUM, Strain/Indicator: TA92, Metabolic Activation: NONE, Method: STANDARD PLATE) “active; positive”; (Test System: AMES SALMONELLA TYPHIMURIUM, Strain/Indicator: TA97, Metabolic Activation: MOUSE, LIVER, S-9, POLYCHLORINATED BIPHENYLS, Method: PREINCUBATION) “active; positive”; (Test System: AMES SALMONELLA TYPHIMURIUM, Strain/Indicator: TA97, Metabolic Activation: MOUSE, LIVER, S-9, POLYCHLORINATED BIPHENYLS, Method: STANDARD PLATE) “active; positive”; under setting [1], “active; positive”. Besides, the mutagenic call was “active; positive” (Test System: AMES SALMONELLA TYPHIMURIUM, Strain/Indicator: TA98, Metabolic Activation: MOUSE, LIVER, S-9, POLYCHLORINATED BIPHENYLS, Method: PREINCUBATION); “active; positive” (Test System: AMES SALMONELLA TYPHIMURIUM, Strain/Indicator: TA98, Metabolic Activation: MOUSE, LIVER, S-9, POLYCHLORINATED BIPHENYLS, Method: STANDARD PLATE); “active; positive” under setting [2]; “active; positive” (Test System: AMES SALMONELLA TYPHIMURIUM, Strain/Indicator: TA100, Metabolic Activation: MOUSE, LIVER, S-9, POLYCHLORINATED BIPHENYLS, Method: PREINCUBATION); “active; positive” (Test System: AMES SALMONELLA TYPHIMURIUM, Strain/Indicator: TA100, Metabolic Activation: MOUSE, LIVER, S-9, POLYCHLORINATED BIPHENYLS, Method: STANDARD PLATE); “active; positive” under setting [3]. In addition, the mutagenic call is “active; positive” (Test System: AMES SALMONELLA TYPHIMURIUM, Strain/Indicator: TA1535, Metabolic Activation: MOUSE, LIVER, S-9, POLYCHLORINATED BIPHENYLS, Method: PREINCUBATION); “active; positive” (Test System: AMES SALMONELLA TYPHIMURIUM, Strain/Indicator: TA1535, Metabolic Activation: MOUSE, LIVER, S-9, POLYCHLORINATED BIPHENYLS, Method: STANDARD PLATE); “active; positive” under setting [4]; “active; positive” (Test System: AMES SALMONELLA TYPHIMURIUM, Strain/Indicator: TA1537, Metabolic Activation: MOUSE, LIVER, S-9, POLYCHLORINATED BIPHENYLS, Method: PREINCUBATION); “active; positive” (Test System: AMES SALMONELLA TYPHIMURIUM, Strain/Indicator: TA1537, Metabolic Activation: MOUSE, LIVER, S-9, POLYCHLORINATED BIPHENYLS, Method: STANDARD PLATE); “active; positive” (Test System: AMES SALMONELLA TYPHIMURIUM, Strain/Indicator: TA1537, Metabolic Activation: NONE, Method: STANDARD PLATE). Further, the mutagenic call by setting is: (Test System: AMES SALMONELLA TYPHIMURIUM, Strain/Indicator: TA1538, Metabolic Activation: MOUSE, LIVER, S-9, POLYCHLORINATED BIPHENYLS, Method: PREINCUBATION) “active; positive”; (Test System: AMES SALMONELLA TYPHIMURIUM, Strain/Indicator: TA1538, Metabolic Activation: MOUSE, LIVER, S-9, POLYCHLORINATED BIPHENYLS, Method: STANDARD PLATE) “active; positive”; (Test System: AMES SALMONELLA TYPHIMURIUM, Strain/Indicator: TA1538, Metabolic Activation: NONE, Method: STANDARD PLATE) “active; positive”.
In the case of `c1ccc2c(c1)ccc1nc3ccc4ccccc4c3cc12`, the mutagenic call (Test System: AMES SALMONELLA TYPHIMURIUM, Strain/Indicator: TA98, Metabolic Activation: GUINEA PIG, LIVER, S-9, 3-METHYLCHOLANTHRENE, Method: STANDARD PLATE) is “inactive; negative”; the mutagenic call (Test System: AMES SALMONELLA TYPHIMURIUM, Strain/Indicator: TA100, Metabolic Activation: GUINEA PIG, LIVER, S-9, 3-METHYLCHOLANTHRENE, Method: STANDARD PLATE) is “active; positive”; the mutagenic call (Test System: AMES SALMONELLA TYPHIMURIUM, Strain/Indicator: TA100, Metabolic Activation: RAT, LIVER, S-9, AROCLOR 1254, Method: STANDARD PLATE) was “active; positive”; the mutagenic call (Test System: AMES SALMONELLA TYPHIMURIUM, Strain/Indicator: TA1537, Metabolic Activation: RAT, LIVER, S-9, AROCLOR 1254, Method: STANDARD PLATE) is “active; positive”; the mutagenic call (Test System: AMES SALMONELLA TYPHIMURIUM, Strain/Indicator: TA1537, Metabolic Activation: RAT, LIVER, S-9, PHENOBARBITAL, Method: STANDARD PLATE) is “active; positive”; the mutagenic call (Test System: AMES SALMONELLA TYPHIMURIUM, Strain/Indicator: TA1538, Metabolic Activation: RAT, LIVER, S-9, PHENOBARBITAL, Method: STANDARD PLATE) was “active; positive”. In addition, where the note is “Test System: CHINESE HAMSTER V-79, Strain/Indicator: V-79/6-THIOGUANINE, Metabolic Activation: GUINEA PIG, LIVER, S-9, 3-METHYLCHOLANTHRENE”, the mutagenic call is “active; positive”.
As to `CCOC(=O)CNC(=O)CCCCSc1ncnc2nc[nH]c12`, the mutagenic call is, setting by setting: under setting [1], “inactive; negative”; (Test System: AMES SALMONELLA TYPHIMURIUM, Strain/Indicator: TA97, Metabolic Activation: RAT, LIVER, S-9, PHENOBARBITAL AND ALPHA-NAPHTHOFLAVONE, Method: STANDARD PLATE) “inactive; negative”; under setting [2], “inactive; negative”; (Test System: AMES SALMONELLA TYPHIMURIUM, Strain/Indicator: TA98, Metabolic Activation: RAT, LIVER, S-9, PHENOBARBITAL AND ALPHA-NAPHTHOFLAVONE, Method: STANDARD PLATE) “inactive; negative”; under setting [3], “inactive; negative”; (Test System: AMES SALMONELLA TYPHIMURIUM, Strain/Indicator: TA100, Metabolic Activation: RAT, LIVER, S-9, PHENOBARBITAL AND ALPHA-NAPHTHOFLAVONE, Method: STANDARD PLATE) “inactive; negative”. For the same compound, the mutagenic call runs as follows: under setting [4], “inactive; negative”; (Test System: AMES SALMONELLA TYPHIMURIUM, Strain/Indicator: TA1535, Metabolic Activation: RAT, LIVER, S-9, PHENOBARBITAL AND ALPHA-NAPHTHOFLAVONE, Method: STANDARD PLATE) “inactive; negative”.
As to `CCC1=C(C(=O)OC)C(=O)OC1C` (stereo not given), the mutagenic call (Test System: AMES SALMONELLA TYPHIMURIUM, Strain/Indicator: TA98, Metabolic Activation: NONE, Method: DISK ASSAY) was “inactive; negative”; the mutagenic call under setting [2] is “active; positive”; the mutagenic call (Test System: AMES SALMONELLA TYPHIMURIUM, Strain/Indicator: TA98, Metabolic Activation: RAT, LIVER, S-9, AROCLOR 1254, Method: DISK ASSAY) was “inactive; negative”; the mutagenic call (Test System: AMES SALMONELLA TYPHIMURIUM, Strain/Indicator: TA98, Metabolic Activation: RAT, LIVER, S-9, AROCLOR 1254, Method: STANDARD PLATE) was “active; positive”.
On to `O[C@H]1C=Cc2ncccc2[C@@H]1O`, for which the mutagenic call is “inactive; negative” under setting [3] and “inactive; negative” (Test System: AMES SALMONELLA TYPHIMURIUM, Strain/Indicator: TA100, Metabolic Activation: RAT, LIVER, S-9, AROCLOR 1254 (10 OR 20%), Method: STANDARD PLATE).
Consider `CC(C)c1cccc(C(C)C)c1O`, for which the mutagenic call (End Point: IN VIVO CHROMOSOMAL ABERRATIONS, Test System: PERIPHERAL BLOOD LYMPHOCYTES, Species: HUMAN, Strain/Sex: MALE, FEMALE, Route: IV) is “inactive; negative”.
Turning to `CC(C)N(CC(O)COc1ccc(CC(N)=O)cc1)N=O` (stereo not given), the mutagenic call (Test System: UDS HUMAN HEPATOCYTES, Strain/Indicator: THY INCORP, Metabolic Activation: NONE, Method: AUTORADIOGRAPHY) was “active; positive” and the mutagenic call (Test System: UDS RAT HEPATOCYTES, Strain/Indicator: THY INCORP, Metabolic Activation: NONE, Method: AUTORADIOGRAPHY) was “active; positive”.
